This note sets out measurements from patent US8895585B2, “Nicotinamide derivative or salt thereof” (FUJIFILM Corporation, priority 2010, dated 2014).

One assay has as its system THP-1 cells. In words: TNFα generation assay. The class given is cell-based, human. As to conditions: Homo sapiens, THP-1, THP-1 cells; Table 22; read-out: IC50 in TNFα generation assay. In outline: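 Secreted TNFα in supernatant quantified by ELISA or AlphaLISA after 7 h culture on human IgG-coated wells (10 μg/ml coating). Cells were IFN-γ-differentiated THP-1 (10 ng/ml, 2 days), exposed to compound for 30 min at room temperature before plating.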

Assay [1] addresses T1, glutathione S-transferase (GST)-fused full-length human Syk protein (Homo sapiens, UniProt P43405).
T1 construct: (GST)-fused full-length human Syk protein; GST (glutathione S-transferase); purchased Carna Biosciences
As to the kind of experiment: Syk enzyme assay. Type of assay: biochemical. Conditions: Syk enzyme assay, Test Example 1; read-out: IC50 of Syk-inhibitory activity. In outline:
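Baculovirus-expressed enzyme (1.2 ng) was preincubated with compound in HEPES pH 7.0/MgCl2/DTT buffer, 2 min shaking then 13 min at room temperature. Biotin-EDPDYEWPSA-NH2 (0.4 μM final) and ATP (27 μM final) were added for 40 min at room temperature. EDTA stop, streptavidin-XL/PT66-K TR-FRET at 615/665 nm gave IC50.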

For the molecule `CC[C@@H](Nc1nc(Nc2ccc3c(c2)c(C)nn3CC(F)F)c(C(N)=O)cc1F)[C@H](C)N` [Example 006-526, 6-(((2S,3R)-2-aminopentan-3-yl)amino)-2-((1-(2,2-difluoroethyl)-3-methyl-1H-indazol-5-yl)amino)-5-fluoronicotinamide], the IC50 in the assay on THP-1 cells is less than 65 nM; in assay [1] it was less than 10 nM.
For `COc1cc(Nc2nc(N[C@@H]3CCOC[C@@H]3N)c(F)cc2C(N)=O)ccn1` [Example 006-531, 6-(((3R,4R)-3-aminotrahydro-2H-pyran-4-yl)amino)-5-fluoro-2-((2-methoxypyridin-4-yl)amino)nicotinamide] the same measures were 65 to 130 nM and less than 10 nM.
As for `NC(=O)c1cc(F)c(N[C@@H]2CCCC[C@@H]2N)nc1Nc1ccc(N2CCOC2=O)nc1` [Example 006-537, 6-(((1R,2S)-2-aminocyclohexyl)amino)-5-fluoro-2-((6-(2-oxooxazolidin-3-yl)pyridin-3-yl)amino)nicotinamide], the IC50 with THP-1 cells lay within 65 to 130 nM; in assay [1], 10 to 50 nM.
With `CCc1nn(C)c2ccc(Nc3nc(N[C@H](CC)[C@H](C)N)c(F)cc3C(N)=O)cc12` [Example 006-539, 6-(((2S,3R)-2-aminopentan-3-yl)amino)-2-((3-ethyl-1-methyl-1H-indazol-5-yl)amino)-5-fluoronicotinamide], the results for the IC50 (in the assay with THP-1 cells; in assay [1]) were 130 to 200 nM and less than 10 nM, respectively.
Regarding `CCc1nn(CC)c2ccc(Nc3nc(N[C@H](CC)[C@H](C)N)c(F)cc3C(N)=O)cc12` [Example 006-541, 6-(((2S,3R)-2-aminopentan-3-yl)amino)-2-((1,3-diethyl-1H-indazol-5-yl)amino)-5-fluoronicotinamide], the IC50 with THP-1 cells is 130 to 200 nM; in assay [1], less than 10 nM.
On to `CC[C@@H](Nc1nc(Nc2ccc3c(c2)c(C(C)C)nn3C)c(C(N)=O)cc1F)[C@H](C)N` [Example 006-543, 6-(((2S,3R)-2-aminopentan-3-yl)amino)-5-fluoro-2-((3-isopropyl-1-methyl-1H-indazol-5-yl)amino)nicotinamide], for which the IC50 is 65 to 130 nM with THP-1 cells and less than 10 nM in assay [1].
For `Cn1nc(C2CC2)c2cc(Nc3nc(N[C@@H]4CCCC[C@@H]4N)c(F)cc3C(N)=O)ccc21` [Example 006-544, 6-(((1R,2S)-2-aminocyclohexyl)amino)-2-((3-cyclopropyl-1-methyl-1H-indazol-5-yl)amino)-5-fluoronicotinamide] the same measures were 65 to 130 nM and less than 10 nM.
Taken in the same sequence, the figures for `C[C@H](N)[C@@H](CC1CC1)Nc1nc(Nc2ccc3c(c2)c(C2CC2)nn3C)c(C(N)=O)cc1F` [Example 006-545, 6-(((2R,3S)-3-amino-1-cyclopropylbutan-2-yl)amino)-2-((3-cyclopropyl-1-methyl-1H-indazol-5-yl)amino)-5-fluoronicotinamide] were 65 to 130 nM and less than 10 nM.
Consider `CC(C)C[C@@H](Nc1nc(Nc2ccc3c(c2)c(C2CC2)nn3C)c(C(N)=O)cc1F)[C@H](C)N` [Example 006-546, 6-(((2S,3R)-2-amino-5-methylhexan-3-yl)amino)-2-((3-cyclopropyl-1-methyl-1H-indazol-5-yl)amino)-5-fluoronicotinamide], for which the IC50 in the assay on THP-1 cells is 130 to 200 nM; in assay [1], less than 10 nM.
Taken in the same sequence, the figures for `CC[C@@H](Nc1nc(Nc2ccc3c(c2)c(C2CC2)nn3C)c(C(N)=O)cc1F)[C@H](C)N` [Example 006-547, 6-(((2S,3R)-2-aminopentan-3-yl)amino)-2-((3-cyclopropyl-1-methyl-1H-indazol-5-yl)amino)-5-fluoronicotinamide] were 65 to 130 nM and less than 10 nM.
Taken in the same sequence, the figures for `CCn1nc(C2CC2)c2cc(Nc3nc(N[C@@H]4CCCC[C@@H]4N)c(F)cc3C(N)=O)ccc21` [Example 006-548, 6-(((1R,2S)-2-aminocyclohexyl)amino)-2-((3-cyclopropyl-1-ethyl-1H-indazol-5-yl)amino)-5-fluoronicotinamide] were 65 to 130 nM and less than 10 nM.
As for `CCn1nc(C2CC2)c2cc(Nc3nc(N[C@H](CC(C)C)[C@H](C)N)c(F)cc3C(N)=O)ccc21` [Example 006-550, 6-(((2S,3R)-2-amino-5-methylhexan-3-yl)amino)-2-((3-cyclopropyl-1-ethyl-1H-indazol-5-yl)amino)-5-fluoronicotinamide], the results for the IC50 (in the assay with THP-1 cells; in assay [1]) were 130 to 200 nM and less than 10 nM, respectively.
Regarding `CC[C@@H](Nc1nc(Nc2ccc3c(c2)c(C2CC2)nn3CC)c(C(N)=O)cc1F)[C@H](C)N` [Example 006-551, 6-(((2S,3R)-2-aminopentan-3-yl)amino)-2-((3-cyclopropyl-1-ethyl-1H-indazol-5-yl)amino)-5-fluoronicotinamide], the IC50 in the assay on THP-1 cells was 130 to 200 nM; in assay [1], less than 10 nM.
On to `COCCOc1ncc(Nc2nc(N[C@@H]3CCCC[C@@H]3N)c(F)cc2C(N)=O)cc1F` [Example 006-552, 6-(((1R,2S)-2-aminocyclohexyl)amino)-5-fluoro-2-((5-fluoro-6-(2-methoxyethoxy)pyridin-3-yl)amino)nicotinamide], for which the results for the IC50 (in the assay on THP-1 cells; in assay [1]) were 65 to 130 nM and 10 to 50 nM, respectively.
Turning to `NC(=O)c1cc(F)c(N[C@@H]2CCCC[C@@H]2N)nc1Nc1cnc(C2CC2)c(F)c1` [Example 006-553, 6-(((1R,2S)-2-aminocyclohexyl)amino)-2-((6-cyclopropyl-5-fluoropyridin-3-yl)amino)-5-fluoronicotinamide], the IC50 in the assay with THP-1 cells was 130 to 200 nM; in assay [1] it was less than 10 nM.
For `CCc1ncc(Nc2nc(N[C@@H]3CCCC[C@@H]3N)c(F)cc2C(N)=O)cc1F` [Example 006-554, 6-(((1R,2S)-2-aminocyclohexyl)amino)-2-((6-ethyl-5-fluoropyridin-3-yl)amino)-5-fluoronicotinamide] the same measures were 130 to 200 nM and 10 to 50 nM.
With `CCn1ncc2cc(Nc3nc(N[C@H](c4ccc(F)cc4)[C@H](C)N)c(F)cc3C(N)=O)ccc21` [Example 006-555, 6-(((1R,2S)-2-amino-1-(4-fluorophenyl)propyl)amino)-2-((1-ethyl-1H-indazol-5-yl)amino)-5-fluoronicotinamide], the IC50 is 65 to 130 nM in the assay on THP-1 cells and less than 10 nM in assay [1].
For the molecule `COc1cc(Nc2nc(N[C@H](c3ccc(F)cc3)[C@H](C)N)c(F)cc2C(N)=O)ccn1` [Example 006-556, 6-(((1R,2S)-2-amino-1-(4-fluorophenyl)propyl)amino)-5-fluoro-2-((2-methoxypyridin-4-yl)amino)nicotinamide], the IC50 in the assay on THP-1 cells was 65 to 130 nM; in assay [1], less than 10 nM.
As for `COc1cc(Nc2nc(N[C@H](c3ccc(F)cc3)[C@H](C)N)c(F)cc2C(N)=O)cc(OC)n1` [Example 006-557, 6-(((1R,2S)-2-amino-1-(4-fluorophenyl)propyl)amino)-2-((2,6-dimethoxypyridin-4-yl)amino)-5-fluoronicotinamide], the IC50 is 130 to 200 nM with THP-1 cells and less than 10 nM in assay [1].
For the molecule `Cc1cc(Nc2nc(N[C@H](c3ccc(F)cc3)[C@H](C)N)c(F)cc2C(N)=O)cnc1C` [Example 006-558, 6-(((1R,2S)-2-amino-1-(4-fluorophenyl)propyl)amino)-2-((5,6-dimethylpyridin-3-yl)amino)-5-fluoronicotinamide], the IC50 in the assay on THP-1 cells was 65 to 130 nM; in assay [1] it was less than 10 nM.
